We go through 26 compounds from patent publication US8946257B2, “N-containing heteroaryl derivatives as JAK3 kinase inhibitors” (Vectura Limited, priority 2009, dated 2015).

In general, inhibition refers to the percentage by which the read-out fell short of the control. A low value points to a response near the control.

Assay [1] has as its target catalytic domain of human JAK3 (Homo sapiens, UniProt P52333). Briefly: Inhibition of JAK3 activity (Z'-Lyte Kinase Assay kit-Tyr 6 Peptide). Type of assay: biochemical. The procedure: The inhibition of JAK3 kinase activity was determined in 384-well assay microplates using the Z′-Lyte® Kinase Assay kit-Tyr 6 Peptide kit, supplied by Invitrogan (Ref: PV4122), following the manufacturer's instructions.
(§1) In a final volume of 10 μL per well, 2.5 μL of the product to be tested dissolved in 4% DMSO (final concentration of the product to be tested, 0.1-10000 nM) was incubated with 0.3 μg/mL of the catalytic domain of human JAK3 (amino acid sequence 281-1124), 2 μM of the substrate peptide Z′-Lyte® Tyr 6 and 4 μM of ATP; all components were dissolved in 50 mM pH 7.5 Hepes buffer, 10 mM Magnesium chloride (II), 1 mM EGTA and 0.01% Brij® 35. The reaction was started by the addition of said 4 μM ATP; after incubation for 1 hour at 25° C., 5 μL of A Z′-Lyte® Tyr 6 development reagent was added and the mixture was incubated for 1 hour at 25° C. Phosphorylation was then quantified in each well using a Safire2® fluorescence microplate reader from Tecan.

For assay [2], the target named is T1, catalytic domain of human JAK2 (Homo sapiens, UniProt O60674).
T1 construct: the catalytic domain of human JAK2
Nature of the assay: Inhibition of JAK2 activity (Z'-Lyte Kinase Assay kit-Tyr 6 Peptide). In kind it is biochemical. The procedure:
The inhibition of JAK2 kinase activity was determined in 384-well assay microplates using the Z′-Lyte® Kinase Assay kit-Tyr 6 Peptide kit, supplied by Invitrogen (Ref: PV4122), following the manufacturer's instructions.
as §1, with “with 0.5 μg/well” for “with 0.3 μg/mL”, “human JAK2,” for “human JAK3 (amino acid sequence 281-1124),”, “and 16” for “and 4”, “said 16” for “said 4”

Counter-ions that a name gives are not always drawn.

catalytic domain of human JAK3, sequence (P52333 781-1124 limits assumed): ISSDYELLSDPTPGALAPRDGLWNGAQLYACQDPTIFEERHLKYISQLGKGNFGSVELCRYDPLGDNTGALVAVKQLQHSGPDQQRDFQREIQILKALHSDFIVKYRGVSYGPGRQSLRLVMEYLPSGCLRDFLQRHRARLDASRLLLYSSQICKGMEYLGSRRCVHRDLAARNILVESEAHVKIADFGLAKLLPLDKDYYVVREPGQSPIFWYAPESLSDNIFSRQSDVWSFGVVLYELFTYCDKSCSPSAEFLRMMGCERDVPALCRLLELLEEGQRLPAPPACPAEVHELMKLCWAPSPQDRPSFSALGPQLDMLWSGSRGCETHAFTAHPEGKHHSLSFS
T1 sequence (O60674 849-1124 limits assumed): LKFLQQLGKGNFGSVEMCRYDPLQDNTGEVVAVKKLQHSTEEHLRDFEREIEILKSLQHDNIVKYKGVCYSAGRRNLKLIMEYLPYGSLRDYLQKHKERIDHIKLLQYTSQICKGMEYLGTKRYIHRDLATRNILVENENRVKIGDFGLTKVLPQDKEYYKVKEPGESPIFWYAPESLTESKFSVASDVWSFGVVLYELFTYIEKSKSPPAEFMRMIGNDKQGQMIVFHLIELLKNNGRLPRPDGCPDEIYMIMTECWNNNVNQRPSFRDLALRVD

For `CC(=O)N1CCC(n2c(=O)[nH]c3cnc(-c4cnn5ccc(C)cc45)nc32)CC1` [Example 1s, 9-(1-acetylpiperidin-4-yl)-2-(5-methylpyrazolo[1,5-a]pyridin-3-yl)-7H-purin-8(9H)-one], the inhibition at 1 µM in assay [1] and in assay [2] was greater than 50% throughout.
As for `N#Cc1ccn2ncc(-c3ccc4[nH]c(=O)n(C5CCOCC5)c4n3)c2c1` [Example 2, 3-(2-Oxo-3-(tetrahydro-2H-pyran-4-yl)-2,3-dihydro-1H-imidazo[4,5-b]pyridin-5-yl)pyrazolo[1,5-a]pyridine-5-carbonitrile], the inhibition at 1 µM in assay [1] and in assay [2] was greater than 50% each time.
On to `O=c1[nH]c2ccc(-c3cnn4ccccc34)nc2n1C1CCOCC1` [Example 2e, 5-(pyrazolo[1,5-a]pyridin-3-yl)-3-(tetrahydro-2H-pyran-4-yl)-1H-imidazo[4,5-b]pyridin-2(3H)-one], for which the inhibition at 1 µM in assay [1] and in assay [2] was greater than 50% each time.
Turning to `Cn1c(=O)n(C2CCOCC2)c2nc(-c3cnn4ccc(C#N)cc34)ncc21` [Example 4, 3-(7-Methyl-8-oxo-9-tetrahydro-2H-pyran-4-yl-8,9-dihydro-7H-purin-2yl)pyrazolo[1,5-a]pyridine-5-carbonitrile], the inhibition at 1 µM in assay [1] and in assay [2] was greater than 50% in each case.
Take `Cn1c(=O)n(C2CCOCC2)c2nc(-c3cnn4ccccc34)ccc21` [Example 5s, 1-methyl-5-(pyrazolo[1,5-a]pyridin-3-yl)-3-(tetrahydro-2H-pyran-4-yl)-1H-imidazo[4,5-b]pyridin-2(3H)-one]: the inhibition at 1 µM in assay [1] and in assay [2] was greater than 50% throughout.
Consider `O=c1[nH]c2ccc(-c3cnn4ccccc34)nc2n1[C@H]1CCCNC1` [Example 6x, (S)-3-(piperidin-3-yl)-5-(pyrazolo[1,5-a]pyridin-3-yl)-1H-imidazo[4,5-b]pyridin-2(3H)-one hydrochloride], for which the inhibition at 1 µM in assay [1] was greater than 50%.
On to `Cc1nc2ccc(-c3cnn4ccc(C#N)cc34)nc2n1C1CCOCC1` [Example 20, 3-(2-Methyl-3-(tetrahydro-2H-pyran-4-yl)-3H-imidazo[4,5-b]pyridin-5-yl)pyrazolo[1,5-a]pyridine-5-carbonitrile], for which the inhibition at 1 µM in assay [1] and in assay [2] was greater than 50% in each case.
In turn, `Cn1ccnc1-c1nc2cnc(-c3cnn4ccc(C#N)cc34)nc2n1C1CCOCC1` [Example 21, 3-(8-(1-Methyl-1H-imidazol-2-yl)-9-(tetrahydro-2H-pyran-4-yl)-9H-purin-2-yl)pyrazolo[1,5-a]pyridine-5-carbonitrile] had an inhibition at 1 µM in assay [1] greater than 50%.
Consider `CCNc1nc2cnc(-c3cnn4ccc(C#N)cc34)nc2n1C1CCOCC1` [Example 22, 3-[8-(Ethylamino)-9-tetrahydro-2H-pyran-4-yl-9H-purin-2-yl]pyrazolo[1,5-a]pyridine-5-carbonitrile], for which the inhibition at 1 µM in assay [1] and in assay [2] was greater than 50% throughout.
Turning to `c1ccn2ncc(-c3ncc4nc(C5CCCC5)n(C5CCOCC5)c4n3)c2c1` [Example 23, 8-Cyclopentyl-2-(pyrazolo[1,5-a]pyridin-3-yl)-9-(tetrahydro-2H-pyran-4-yl)-9H-purine], the inhibition at 1 µM in assay [1] and in assay [2] was greater than 50% each time.
For the compound `CC(=O)N1CCC[C@H](n2c(=O)n(C)c3ccc(-c4cnn5ccccc45)nc32)C1` [Example 24, (S)-3-(1-Acetylpiperidin-3-yl)-1-methyl-5-(pyrazolo[1,5-a]pyridin-3-yl)-1H-imidazo[4,5-b]pyridin-2(3H)-one], the inhibition at 1 µM in assay [1] and in assay [2] was greater than 50% in each case.
As for `Cn1c(=O)n([C@H]2CCCN(C(=O)C3(C#N)CC3)C2)c2nc(-c3cnn4ccccc34)ccc21` [Example 25, (S)-1-(3-(1-Methyl-2-oxo-5-(pyrazolo[1,5-a]pyridin-3-yl)-1H-imidazo[4,5-b]pyridin-3(2H)-yl)piperidine-1-carbonyl)cyclopropanecarbonitrile], the inhibition at 1 µM in assay [1] and in assay [2] was greater than 50% throughout.
Compound `CCOC(=O)N1CCC[C@H](n2c(=O)[nH]c3cnc(-c4cnn5ccc(C#N)cc45)nc32)C1` [Example 26a] came in with an inhibition at 1 µM in assay [2] greater than 50%.
Turning to `CC(C)NC(=O)N1CCC[C@H](n2c(=O)[nH]c3cnc(-c4cnn5ccc(C#N)cc45)nc32)C1` [Example 26c], the inhibition at 1 µM in assay [2] was greater than 50%.
Same read-out and setting: for `CC(C)(C)NC(=O)N1CCC[C@H](n2c(=O)[nH]c3cnc(-c4cnn5ccc(C#N)cc45)nc32)C1` [Example 26d] the value was greater than 50%.
Still for that read-out and setting: with `CCOC(=O)n1c(=O)n([C@H]2CCCN(C(=O)CC#N)C2)c2nc(-c3cnn4ccccc34)ncc21` [Example 26e] the figure was greater than 50%.
In turn, `CC(=O)n1c(=O)n([C@H]2CCCN(C(=O)CC#N)C2)c2nc(-c3cnn4ccccc34)ncc21` [Example 26f] yielded an inhibition at 1 µM in assay [2] greater than 50%.
The same measure, in the same setting: with `CC(=O)N1CCC[C@H](n2c(=O)n(C)c3cnc(-c4cnn5ccccc45)nc32)C1` [Example 26g] the figure was greater than 50%.
As for `N#Cc1ccn2ncc(-c3ncc4[nH]c(=O)n([C@H]5CCCN(C(=O)C6(C#N)CC6)C5)c4n3)c2c1` [Example 27, (S)-3-(9-(1-(1-Cyanocyclopropanecarbonyl)piperidin-3-yl)-8-oxo-8,9-dihydro-7H-purin-2-yl)pyrazolo[1,5-a]pyridine-5-carbonitrile], the inhibition at 1 µM in assay [1] and in assay [2] was greater than 50% throughout.
The compound `N#Cc1ccn2ncc(-c3ncc4[nH]c(=O)n([C@H]5CCCN(C(=O)C6(O)CC6)C5)c4n3)c2c1` [Example 27a] gave an inhibition at 1 µM in assay [2] greater than 50%.
Take `C[C@H](CO)n1c(=O)[nH]c2cnc(-c3cnn4ccc(C#N)cc34)nc21` [Example 28, (R)-3-(9-(1-Hydroxypropan-2-yl)-8-oxo-8,9-dihydro-7H-purin-2-yl)pyrazolo[1,5-a]pyridine-5-carbonitrile]: the inhibition at 1 µM in assay [1] is greater than 50%.
In assay [1], `C[C@H](CO)n1c(=O)n(C)c2cnc(-c3cnn4ccc(C#N)cc34)nc21` [Example 32, (R)-3-(9-(1-Hydroxypropan-2-yl)-7-methyl-8-oxo-8,9-dihydro-7H-purin-2-yl)pyrazolo[1,5-a]pyridine-5-carbonitrile] came in with an inhibition at 1 µM greater than 50%.
As for `CCC(=O)Nc1nc2cnc(-c3cnn4ccccc34)nc2n1C1CCOCC1` [Example 34b], the inhibition at 1 µM in assay [2] was greater than 50%.
In turn, `Cn1c(=O)n([C@H]2CC[C@H](O)CC2)c2nc(-c3cnn4ccc(C#N)cc34)ncc21` [Example 35, 3-(9-(trans-4-Hydroxycyclohexyl)-7-methyl-8-oxo-8,9-dihydro-7H-purin-2-yl)pyrazolo[1,5-a]pyridine-5-carbonitrile] gave an inhibition at 1 µM in assay [1] greater than 50%.
In assay [1], `N#Cc1ccn2ncc(-c3ncc4[nH]c(=O)n(CC(=O)NCC(F)(F)F)c4n3)c2c1` [Example 36, 2-(2-(5-Cyanopyrazolo[1,5-a]pyridin-3-yl)-8-oxo-7H-purin-9(8H)-yl)-N-(2,2,2-trifluoroethyl)acetamide] gave an inhibition at 1 µM greater than 50%.
In assay [1], `Cn1c(=O)n(C2CCOCC2)c2nc(-c3cnc4ccccn34)ncc21` [Example 37, 2-(Imidazo[1,2-a]pyridin-3-yl)-7-methyl-9-(tetrahydro-2H-pyran-4-yl)-7H-purin-8(9H)-one] showed an inhibition at 1 µM greater than 50%.
